Laboratory results: ChEMBL document CHEMBL4024791, “Identification of Morpholino-2H-pyrido[3,2-b][1,4]oxazin-3(4H)-ones as Nonsteroidal Mineralocorticoid Antagonists” (J Med Chem, 2018)

How the values were obtained:
[1] = Apparent permeability in RRCK cells; assay type: ADME, cell-based, Canis lupus familiaris, MDCKII-LE; conditions: dog, MDCK
[2] = Volume of distribution at steady state in dog; assay type: ADME, Canis lupus familiaris; conditions: in vivo, read-out: Vdss
[3] = AUC in Wistar rat at 500 mg/kg, po administered as single dose measured up to 8 hrs post dose by LC-MS analysis; assay type: ADME, organism-based; design: dose 500 mg/kg, time < 8 hr, route oral; conditions: in vivo
[4] = biological target: T1, Progesterone receptor (Homo sapiens, UniProt P06401); assay: Displacement of [3H]-progesterone from recombinant human His-tagged PR-b after 4 hrs by liquid scintillation counting
T1 sequence (P06401 whole entry): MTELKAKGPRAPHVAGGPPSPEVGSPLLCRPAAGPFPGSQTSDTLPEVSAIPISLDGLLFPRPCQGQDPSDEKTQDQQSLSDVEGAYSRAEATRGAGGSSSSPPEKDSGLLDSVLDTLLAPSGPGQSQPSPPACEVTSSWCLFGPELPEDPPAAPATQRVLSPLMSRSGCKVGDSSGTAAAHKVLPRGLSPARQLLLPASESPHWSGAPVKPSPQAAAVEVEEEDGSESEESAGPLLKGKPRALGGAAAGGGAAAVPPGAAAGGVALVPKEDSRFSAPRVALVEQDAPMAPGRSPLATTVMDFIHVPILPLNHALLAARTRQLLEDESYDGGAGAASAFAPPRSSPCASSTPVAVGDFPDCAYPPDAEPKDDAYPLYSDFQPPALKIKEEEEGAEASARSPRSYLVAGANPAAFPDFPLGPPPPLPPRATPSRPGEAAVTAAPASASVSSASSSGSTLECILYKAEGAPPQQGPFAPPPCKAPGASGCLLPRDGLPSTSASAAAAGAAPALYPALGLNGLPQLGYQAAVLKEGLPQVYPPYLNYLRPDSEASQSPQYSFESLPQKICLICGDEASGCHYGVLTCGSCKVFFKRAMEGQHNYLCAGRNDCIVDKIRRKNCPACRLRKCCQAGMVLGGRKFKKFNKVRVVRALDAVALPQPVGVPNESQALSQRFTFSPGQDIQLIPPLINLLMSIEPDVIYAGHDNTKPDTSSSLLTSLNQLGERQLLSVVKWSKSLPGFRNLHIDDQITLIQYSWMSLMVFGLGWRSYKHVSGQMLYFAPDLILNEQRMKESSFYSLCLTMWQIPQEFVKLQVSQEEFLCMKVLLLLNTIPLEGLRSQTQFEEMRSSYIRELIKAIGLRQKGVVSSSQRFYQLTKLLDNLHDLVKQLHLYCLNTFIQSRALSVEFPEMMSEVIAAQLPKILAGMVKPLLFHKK

[5] = biological target: T2, Glucocorticoid receptor (Homo sapiens, UniProt P04150); assay: Displacement of [3H]-dexamethasone from recombinant human GST-tagged GR ligand binding domain after 4 hrs by liquid scintillation counting
T2 sequence (P04150 whole entry): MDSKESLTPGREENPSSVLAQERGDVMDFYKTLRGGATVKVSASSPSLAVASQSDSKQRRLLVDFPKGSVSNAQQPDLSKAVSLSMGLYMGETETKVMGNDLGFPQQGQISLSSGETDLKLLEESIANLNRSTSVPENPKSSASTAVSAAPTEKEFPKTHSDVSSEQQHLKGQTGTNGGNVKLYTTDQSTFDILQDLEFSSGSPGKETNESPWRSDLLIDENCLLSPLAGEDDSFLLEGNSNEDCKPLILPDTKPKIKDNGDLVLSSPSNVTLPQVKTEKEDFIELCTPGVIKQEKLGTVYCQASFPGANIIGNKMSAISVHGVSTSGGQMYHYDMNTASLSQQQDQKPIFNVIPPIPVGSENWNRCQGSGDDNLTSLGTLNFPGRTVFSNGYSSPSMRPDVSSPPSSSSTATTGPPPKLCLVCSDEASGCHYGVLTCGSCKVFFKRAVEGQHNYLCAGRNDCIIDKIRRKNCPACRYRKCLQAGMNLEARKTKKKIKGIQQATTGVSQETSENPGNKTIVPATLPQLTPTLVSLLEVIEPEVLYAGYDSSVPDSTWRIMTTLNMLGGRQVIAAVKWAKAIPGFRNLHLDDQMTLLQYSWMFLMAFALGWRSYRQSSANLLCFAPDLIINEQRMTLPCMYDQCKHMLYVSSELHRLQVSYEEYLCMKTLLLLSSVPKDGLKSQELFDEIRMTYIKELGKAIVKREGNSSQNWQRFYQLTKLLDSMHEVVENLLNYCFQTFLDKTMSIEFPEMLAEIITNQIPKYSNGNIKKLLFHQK

[6] = test system: Rattus norvegicus; assay: Effect on reproductive system in Wistar Han rat at 30 to 500 mg/kg, po for 14 days; assay type: ADME, organism-based; conditions: in vivo, 336 h
[7] = test system: Salmonella typhimurium; assay: Genotoxicity in Salmonella typhimurium by Ames test; assay type: toxicity; conditions: salmonella enterica subsp. enterica serovar typhimurium
[8] = Fraction unbound in rat plasma; assay type: ADME, cell-free
[9] = biological target: T3, Mineralocorticoid receptor (Rattus norvegicus, UniProt P22199); assay: Antagonist activity at rat GAL4-DBD fused MR ligand binding domain transfected in human Huh7 cells co-expressing GAL4-RE-Luc assessed as reduction in aldosterone-induced luciferase activity after 16 hrs in serum free condition by luciferase reporter gene assay; assay type: cell-based
T3 sequence (P22199 whole entry): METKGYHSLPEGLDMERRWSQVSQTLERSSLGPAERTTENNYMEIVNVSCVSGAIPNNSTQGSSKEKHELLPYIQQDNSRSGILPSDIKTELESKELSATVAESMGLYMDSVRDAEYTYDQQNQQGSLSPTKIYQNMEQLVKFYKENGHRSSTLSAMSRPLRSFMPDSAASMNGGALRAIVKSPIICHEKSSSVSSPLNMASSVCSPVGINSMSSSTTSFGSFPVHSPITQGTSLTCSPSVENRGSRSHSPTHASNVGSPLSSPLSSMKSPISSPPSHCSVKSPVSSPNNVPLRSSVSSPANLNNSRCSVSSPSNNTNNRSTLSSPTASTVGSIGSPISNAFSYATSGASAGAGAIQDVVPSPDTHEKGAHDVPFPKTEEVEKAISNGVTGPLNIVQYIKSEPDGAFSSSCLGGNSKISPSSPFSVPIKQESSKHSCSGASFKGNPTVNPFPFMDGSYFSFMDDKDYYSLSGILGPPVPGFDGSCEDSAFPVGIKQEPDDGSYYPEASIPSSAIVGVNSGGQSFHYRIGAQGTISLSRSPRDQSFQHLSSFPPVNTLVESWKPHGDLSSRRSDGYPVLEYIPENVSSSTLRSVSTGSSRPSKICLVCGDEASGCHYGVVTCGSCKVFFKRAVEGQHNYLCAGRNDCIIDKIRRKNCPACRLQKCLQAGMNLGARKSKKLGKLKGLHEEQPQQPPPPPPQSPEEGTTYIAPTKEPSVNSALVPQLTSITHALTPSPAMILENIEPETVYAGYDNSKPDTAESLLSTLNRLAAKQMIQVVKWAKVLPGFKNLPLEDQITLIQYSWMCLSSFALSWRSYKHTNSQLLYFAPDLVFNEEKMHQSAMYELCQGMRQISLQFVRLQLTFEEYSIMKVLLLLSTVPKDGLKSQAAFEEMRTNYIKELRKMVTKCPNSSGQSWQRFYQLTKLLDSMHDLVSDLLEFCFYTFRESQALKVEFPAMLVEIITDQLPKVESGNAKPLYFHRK

Work on `O=C1COc2ccc(N3CCOC[C@H]3c3ccccc3)cc2N1` yielded a Papp [1] of 29.3 ×10⁻⁶ cm/s.
Compound `C[C@@H]1CN(c2ccc3c(n2)NC(=O)CO3)[C@H](c2ccccc2)CO1` has a Vd [2] of 2.37 L/kg, an AUC at 8 h [3] of 13500 ng·h/mL and an IC50 [4] greater than 10 µM. For the same compound, the IC50 [5] was greater than 10 µM, the Activity [6] was “Non-Toxic” and the Activity [7] was “Non-Toxic”. For the same compound, the fraction unbound [8] was 0.15 and the IC50 [9] was 0.0032 µM.
